Laboratory results as given in US6979684B1, “Pyrrolo[2,1-c][1,4]benzodiazepine-napthalimide conjugates linked through piperazine moiety and process for preparation thereof” (Council of Scientific and Industrial Research, priority 2004, dated 2005).

What was measured:
[1] = tested on: CT-DNA; assay: DNA Thermal Denaturation Studies; assay type: binding; conditions: 1:5 [PBD]/[DNA], CT-DNA 100 μM, ligand 20 μM, sodium phosphate buffer pH 7.00, values ±0.1–0.2° C.; for Induced […]Tm ° C. after incubation at 37° C. 0 h: 0 h at 37° C.; for Induced […]Tm ° C. after incubation at 37° C. 18 h: 18 h at 37° C.
Protocol: For CT-DNA alone at pH 7.00±0.01, Tm=69.8° C.±0.01 (mean value from 10 separate determinations), all ΔTm values are ±0.1–0.2° C. For a 1:5 molar ratio of [PBD]/[DNA], where CT-DNA concentration=100 μM and ligand concentration=20 μM in aqueous sodium phosphate buffer [10 mM sodium phosphate+1 mM EDTA, pH 7.00±0.01].

[2] = tested on: HT-29; assay: In vitro cytotoxicity (SRB), percentage growth inhibition, HT-29; assay type: cell-based, human; conditions: HT-29 (colon), 48 hours
Protocol: (§1) In vitro cytotoxicity against human cancer cell lines: The human cancer cell lines procured from National Cancer Institute, Frederick, U.S.A or National Center for Cell Science; Pune, India. were used in present study. Cells were grown in tissue culture flasks in complete growth medium (RPMI-1640 medium with 2 mM glutamine, 100 μg/ml streptomycin, pH 7.4, sterilized by filtration and supplemented with 10% fetal calf serum and 100 units/ml penicillin before use) at 37° C. in an atmosphere of 5% CO2 and 90% relative humidity in a carbon dioxide incubator. The cells at subconfluent stage were harvested from the flask by treatment with trypsin (0.5% in PBS containing 0.02% EDTA) for determination of cytotoxicity. Cells with viability of more than 98% as determined by trypan blue exclusion were used for assay. The cell suspension of the required cell density were prepared in complete growth medium with gentamycin (50 μg/ml) for determination of cytotoxicity.
(§2) A stock solutions of (2×10^−2 M) of test material were prepared in DMSO. The stock solutions were serially diluted with complete growth medium containing 50 μg/ml of gentamycin to obtain working test solutions of required concentrations.
(§3) In vitro cytotoxicity against human cancer cell lines was determined (Monks, A., Scudiero, D., Skehan, P, Shoemaker R., Paull, K., Vistica, D., Hose, C., Langley, J., Cronise, P., Vaigro-Wolff, A., Gray-Goodrich, M., Campbell, H., Mayo, J and Boyd M. J. Natl. Cancer Inst., 1991, 83, 757–766) using 96-well tissue culture plates. The 100 μl of cell suspension was added to each well of the 96-well tissue culture plate. The cells were incubated for 24 hours. Test materials in complete growth medium (100 μl) were added after 24 hours incubation to the wells containing cell suspension. The plates were further incubated for 48 hours (at 37° C. in an atmosphere of […] 90% relative humidity in a carbon dioxide incubator) after addition of test material and then the cell growth was stopped by gently layering trichloroacetic acid (TCA, 50 μl, 50%) on top of the medium in all the wells. The plates were incubated at 4° C. for one hour to fix the cells attached to the bottom of the wells. The liquid of all the wells was gently pipetted out and discarded. The plates were washed five times with distilled water to remove TCA, growth medium low molecular weight metabolites, serum proteins etc and air-dried. Cell growth was measured by staining with sulforhodamine B dye (Skehan et al., 1990). The adsorbed dye was dissolved in Tris-Buffer ([…], 0.01 M, pH 10.4) and plates were gently stirred for 5 minutes on a mechanical stirrer. The optical density was recorded on ELISA reader at 540 nm.
(§4) The cell growth was calculated by subtracting mean OD value of respective blank from the mean OD value of experimental set. Percent growth in presence of test material was calculated considering the growth in absence of any test material as 100% and in turn percent growth inhibition in presence of test material will be calculated.

[3] = tested on: SiHa; assay: In vitro cytotoxicity (SRB), percentage growth inhibition, SiHa; assay type: cell-based, human; conditions: SiHa (cervix), 48 hours
Protocol: as §1, §2, §3, §4

[4] = tested on: HCT-15; assay: In vitro cytotoxicity (SRB), percentage growth inhibition, HCT-15; assay type: cell-based, human; conditions: HCT-15 (colon), 48 hours
Protocol: as §1, §2, §3, §4

[5] = tested on: A-549; assay: In vitro cytotoxicity (SRB), percentage growth inhibition, A-549; assay type: cell-based, human; conditions: A-549 (lung), 48 hours
Protocol: as §1, §2, §3, §4

[6] = tested on: HOP-62; assay: In vitro cytotoxicity (SRB), percentage growth inhibition, HOP-62; assay type: cell-based, human; conditions: HOP-62 (lung), 48 hours
Protocol: as §1, §2, §3, §4

## COc1cc2c(cc1O)N=CC1CCCN1C2=O (centres unmarked) [DC-81, reference compound]
[1]
  Induced […]Tm ° C. after incubation at 37° C. 0 h: 0.3 °C
  Induced […]Tm ° C. after incubation at 37° C. 18 h: 0.7 °C

## COc1cc2c(cc1OCCN1CCN(CCN3C(=O)c4cccc5cccc(c45)C3=O)CC1)N=C[C@@H]1CCCN1C2=O [VIIIa, 7-Methoxy-8-{2-[4-[2-(1,3-dioxo-benz[de]isoquinolin-2-yl)ethyl]piperazin-1-yl]ethyl}-oxy-(11aS)-1,2,3,11a tetrahydro-5H-pyrrolo[2,1-c][1,4]benzodiazepin-5-one]
[1]
  Induced […]Tm ° C. after incubation at 37° C. 0 h: 21.9 °C
  Induced […]Tm ° C. after incubation at 37° C. 18 h: 22.7 °C

## COc1cc2c(cc1OCCCN1CCN(CCN3C(=O)c4cccc5cccc(c45)C3=O)CC1)N=C[C@@H]1CCCN1C2=O [VIIIb, 7-Methoxy-8-{3-[4-[2-(1,3-dioxo-benz[de]isoquinolin-2-yl)ethyl]piperazin-1-yl]propyl}-oxy-(11aS)-1,2,3,11a tetrahydro-5H-pyrrolo[2,1-c][1,4]benzodiazepin-5-one]
[2]; 10^−4 mol/L
  percentage growth inhibition HT-29: 88%
[2]; 10^−5 mol/L
  percentage growth inhibition HT-29: 85%
[2]; 10^−6 mol/L
  percentage growth inhibition HT-29: 91%
[3]; 10^−5 mol/L
  percentage growth inhibition SiHa: 44%
[3]; 10^−6 mol/L
  percentage growth inhibition SiHa: 54%
[4]; 10^−5 mol/L
  percentage growth inhibition HCT-15: 59%
[4]; 10^−6 mol/L
  percentage growth inhibition HCT-15: 58%
[1]
  Induced […]Tm ° C. after incubation at 37° C. 0 h: 25.8 °C
  Induced […]Tm ° C. after incubation at 37° C. 18 h: 26.7 °C
[5]; 10^−4 mol/L
  percentage growth inhibition A-549: 88%
[6]; 10^−5 mol/L
  percentage growth inhibition HOP-62: 86%
[6]; 10^−6 mol/L
  percentage growth inhibition HOP-62: 72%

## COc1cc2c(cc1OCCCCN1CCN(CCN3C(=O)c4cccc5cccc(c45)C3=O)CC1)N=C[C@@H]1CCCN1C2=O [VIIIc, 7-Methoxy-8-{4-[4-[2-(1,3-dioxo-benz[de]isoquinolin-2-yl)ethyl]piperazin-1-yl]butyl}-oxy-(11aS)-1,2,3,11a tetrahydro-5H-pyrrolo[2,1-c][1,4]benzodiazepin-5-one]
[2]; 10^−4 mol/L
  percentage growth inhibition HT-29: 94%
[2]; 10^−5 mol/L
  percentage growth inhibition HT-29: 86%
[2]; 10^−6 mol/L
  percentage growth inhibition HT-29: 80%
[3]; 10^−4 mol/L
  percentage growth inhibition SiHa: 56%
[3]; 10^−5 mol/L
  percentage growth inhibition SiHa: 39%
[4]; 10^−5 mol/L
  percentage growth inhibition HCT-15: 69%
[4]; 10^−6 mol/L
  percentage growth inhibition HCT-15: 60%
[1]
  Induced […]Tm ° C. after incubation at 37° C. 0 h: 23.4 °C
  Induced […]Tm ° C. after incubation at 37° C. 18 h: 24.2 °C
[5]; 10^−4 mol/L
  percentage growth inhibition A-549: 95%
[6]; 10^−5 mol/L
  percentage growth inhibition HOP-62: 93%
[6]; 10^−6 mol/L
  percentage growth inhibition HOP-62: 86%

## COc1cc2c(cc1OCCCN1CCN(CCCN3C(=O)c4cccc5cccc(c45)C3=O)CC1)N=C[C@@H]1CCCN1C2=O [VIIId, 7-Methoxy-8-{3-[4-[3-(1,3-dioxo-benz[de]isoquinolin-2-yl)propyl]piperazin-1-yl]propyl}-oxy-(11aS)-1,2,3,11a tetrahydro-5H-pyrrolo[2,1-c][1,4]benzodiazepin-5-one]
[2]; 10^−4 mol/L
  percentage growth inhibition HT-29: 95%
[2]; 10^−5 mol/L
  percentage growth inhibition HT-29: 62%
[2]; 10^−6 mol/L
  percentage growth inhibition HT-29: 63%
[3]; 10^−4 mol/L
  percentage growth inhibition SiHa: 85%
[3]; 10^−5 mol/L
  percentage growth inhibition SiHa: 65%
[3]; 10^−6 mol/L
  percentage growth inhibition SiHa: 31%
[1]
  Induced […]Tm ° C. after incubation at 37° C. 0 h: 13.1 °C
  Induced […]Tm ° C. after incubation at 37° C. 18 h: 14.3 °C
[5]; 10^−4 mol/L
  percentage growth inhibition A-549: 95%
[5]; 10^−5 mol/L
  percentage growth inhibition A-549: 30%
[5]; 10^−6 mol/L
  percentage growth inhibition A-549: 51%
[6]; 10^−4 mol/L
  percentage growth inhibition HOP-62: 78%

## COc1cc2c(cc1OCCCCN1CCN(CCCCN3C(=O)c4cccc5cccc(c45)C3=O)CC1)N=C[C@@H]1CCCN1C2=O [VIIIe, 7-Methoxy-8-{4-[4-[4-(1,3-dioxo-benz[de]isoquinolin-2-yl)butyl]piperazin-1-yl]butyl}-oxy-(11aS)-1,2,3,11a tetrahydro-5H-pyrrolo[2,1-c][1,4]benzodiazepin-5-one]
[2]; 10^−4 mol/L
  percentage growth inhibition HT-29: 92%
[2]; 10^−5 mol/L
  percentage growth inhibition HT-29: 78%
[2]; 10^−6 mol/L
  percentage growth inhibition HT-29: 67%
[3]; 10^−4 mol/L
  percentage growth inhibition SiHa: 42%
[3]; 10^−5 mol/L
  percentage growth inhibition SiHa: 40%
[3]; 10^−6 mol/L
  percentage growth inhibition SiHa: 44%
[4]; 10^−5 mol/L
  percentage growth inhibition HCT-15: 62%
[4]; 10^−6 mol/L
  percentage growth inhibition HCT-15: 59%
[1]
  Induced […]Tm ° C. after incubation at 37° C. 0 h: 20.9 °C
  Induced […]Tm ° C. after incubation at 37° C. 18 h: 21.7 °C
[5]; 10^−4 mol/L
  percentage growth inhibition A-549: 93%
[6]; 10^−5 mol/L
  percentage growth inhibition HOP-62: 93%
[6]; 10^−6 mol/L
  percentage growth inhibition HOP-62: 80%
